Experiments:
Assay type in all cases: functional, cell-based
[1] = Antiproliferative activity against human DND1 cells
CCRF-CEM = test: Cytotoxicity against human CEM cells
DU-145 = test: Antiproliferative activity against human DU145 cells
MOLT-3 = test: Antiproliferative activity against human Molt3 cells
Bel-7402 = test: Antiproliferative activity against human Bel-7402 cells
PC-3 = test: Antiproliferative activity against human PC3 cells
MCF7 = test: Antiproliferative activity against human MCF7 cells

## COc1ccc(/C=C\c2cc(OC)c(OC)c(OC)c2)cc1O [COMBRETASTATIN A4]
[1]
  IC50: 2.5 nM

## CCn1c2ccccc2c2cc(S(=O)(=O)Nc3ccc(C)nc3C)ccc21
CCRF-CEM
  IC50: > 2000 nM

## CCn1c2ccccc2c2cc(S(=O)(=O)Nc3cc(OC)ncn3)ccc21
CCRF-CEM
  IC50: > 2000 nM

## CCn1c2ccccc2c2cc(S(=O)(=O)Nc3cc(OC)nc(OC)n3)ccc21
CCRF-CEM
  IC50: > 2000 nM

## CCn1c2ccccc2c2cc(S(=O)(=O)Nc3cccnc3OC)ccc21
CCRF-CEM
  IC50: 786 nM

## COc1ccc(NS(=O)(=O)c2ccc3c(c2)c2ccccc2n3C)c(OC)n1
CCRF-CEM
  IC50: 101 nM

## COc1ccc(NS(=O)(=O)c2ccc3c(c2)CCN3C)c(OC)n1
CCRF-CEM
  IC50: > 2000 nM

## CCn1c2ccccc2c2cc(S(=O)(=O)Nc3nc(OC)cc(OC)n3)ccc21
CCRF-CEM
  IC50: > 2000 nM

## CCn1c2ccccc2c2cc(S(=O)(=O)Nc3ccc(OC)nc3OC)ccc21
DU-145
  IC50: 729 nM
MOLT-3
  IC50: 22 nM
Bel-7402
  IC50: 976 nM
PC-3
  IC50: 603 nM
CCRF-CEM
  IC50: 122 nM
MCF7
  IC50: 241 nM
[1]
  IC50: 193 nM

## CCn1c2ccccc2c2cc(S(=O)(=O)Nc3cc(Cl)nc(Cl)c3)ccc21
CCRF-CEM
  IC50: > 2000 nM

## CCn1c2ccccc2c2cc(/C=C/c3ccc(OC)nc3OC)ccc21
CCRF-CEM
  IC50: > 2000 nM

## COc1ccc(NS(=O)(=O)c2ccc3c(ccn3C)c2)c(OC)n1
CCRF-CEM
  IC50: 712 nM

## COc1ccc(/C=C/c2ccc(OC)c(O)c2)c(OC)n1
CCRF-CEM
  IC50: > 2000 nM

## CCn1c2ccccc2c2cc(S(=O)(=O)Nc3ccc(OC)cc3OC)ccc21
CCRF-CEM
  IC50: 57 nM
[1]
  IC50: 120 nM

## CCn1c2ccccc2c2cc(S(=O)(=O)Nc3cc(OC)c(OC)c(OC)c3)ccc21
CCRF-CEM
  IC50: 56 nM
[1]
  IC50: 89 nM

## CCn1c2ccccc2c2cc(S(=O)(=O)Nc3ccc(Cl)nc3Cl)ccc21
CCRF-CEM
  IC50: > 2000 nM

## CCn1c2ccccc2c2cc(S(=O)(=O)Nc3ccc(OC)nc3)ccc21
CCRF-CEM
  IC50: 649 nM

## CCn1c2ccccc2c2cc(/C=C\c3ccc(OC)nc3OC)ccc21
CCRF-CEM
  IC50: > 2000 nM

## COc1ccc(/C=C\c2ccc(OC)c(O)c2)c(OC)n1
CCRF-CEM
  IC50: 342 nM

## COc1cc([C@@H]2c3cc4c(cc3[C@H](O)[C@H]3COC(=O)[C@H]23)OCO4)cc(OC)c1OC [PODOFILOX]
CCRF-CEM
  IC50: 7.2 nM
[1]
  IC50: 12 nM

Source: ChEMBL document CHEMBL1144595, “Novel pyridinyl and pyrimidinylcarbazole sulfonamides as antiproliferative agents” (Bioorg Med Chem Lett, 2007)
